Measurements reported in patent US4118561A, “7-(Substituted)-7H-pyrrolo[3,2-f]quinazoline-1,3-diamines” (priority 1977, dated 1978).
In brackets after ≈: the same amount, converted by molar mass. Read-outs that look alike come from different tables or passages of the source.

What was measured:
E. coli 9637 = test: In vitro antibacterial activity (MIC), E. coli 9637; conditions: Escherichia coli, 9637, 18 h
S. paratyphi 11737 = test: In vitro antibacterial activity (MIC), S. paratyphi 11737; assay type: cell-based; conditions: Salmonella enterica, 18 h
[1] = Antimalarial blood schizonticidal test in mice; assay type: in vivo, Plasmodium berghei (infected ICR/HA Swiss mice); parameters: ΔMST (increase in mean survival time): unit: days; conditions: mouse, in vivo, sc, single dose, infected mice; highest dose with no deaths for any reason; read-out: Highest Non-Lethal Dose
Excerpt: (§1) In addition, the invention provides compounds which have antimalarial activity in vivo as evidenced by a standard blood schizonticidal test in mice infected with Plasmodium berghei KBG 173.
(§2) Utilizing young ICR/HA Swiss mice and a standard inoculum of Plasmodium berghei KBG 173, it is possible to produce a uniform disease fatal to 100% of untreated animals within 6 to 8 days with a mean survival time of 6.2 days. Test animals weigh from 18 to 22 grams but weight variations in any given experimental or control group are confined to 2-3 grams. All animals in any given test are approximately of the same age. Animals on test are housed in metal-topped plastic cages, given a standard laboratory diet and water ad libitum.
(§3) Test animals receive an intraperitoneal injection of 0.5 ml. of 1:100 dilution of heparinized heart's blood with a minimum of 90% parasitized cells (4 × 10^7 cells), drawn from donor mice infected one week earlier with Plasmodium berghei. The donor strain is maintained by weekly passages in separate groups of mice inoculated with a 0.5 ml. of 1:500 dilution of heparinized heart's blood.
(§4) Test compounds are administered after dissolution or suspension in peanut oil. A single dose is given subcutaneously 72 hours after the mice are infected with Plasmodium berghei. At this time a 10-15 percent parasitemia has developed; the disease is well established but has not produced sufficient debility to alter the response of the host to toxic effects of the drug on test. Since treatment is withheld for three days to permit the infection to become well established and death occurs in untreated controls within 6-8 days, it is felt that this system presents a candidate compound with the maximum challenge. In order to check factors such as changes in the infectivity of Plasmodium berghei or in the susceptibility of the host or to detect technical errors, a group of infected animals treated with pyrimethamine at dose levels producing definite increases in survival time is included in a positive control in every experiment.
(§5) In each experiment test compounds are administered in graded dosages. […] However, if an active drug is toxic for the host, its toxicity may become a limiting factor; continued increases in dose levels also increase the toxic effects and may result in the diminution of survival times. Deaths prior to the sixth day, when untreated controls begin to die, are regarded as nonparasitic and become the basis for toxicity evaluations. […] In calculating mean survival time, toxic deaths and 60-day survivors are not included.
(§6) Compounds are considered active which produce a cure in at least one test animal or which produce significant increases in mean survival times of the treated animals as compared with the mean survival times of untreated controls, provided that no drug related deaths (toxicity) are noted at the active dose.

[2] = system: Plasmodium berghei KBG 173; test: Antimalarial blood schizonticidal test in mice; assay type: in vivo, Plasmodium berghei (infected ICR/HA Swiss mice); parameters: ΔMST (increase in mean survival time): unit: days; conditions: for ED100 / minimal effective dose: Plasmodium berghei, sc, single dose; for ED100: read-out: Lowest Dose Curing All Mice; for minimal effective dose: read-out: Min. Curing Dose; for Cure/Treat at Min. Curing Dose: at the Min. Curing Dose
Excerpt: as §1, §2, §3, §4, §5, §6

S. aureus Smith = test: In vitro antibacterial activity (MIC), S. aureus Smith; conditions: Staphylococcus aureus, 18 h
K. pneumoniae 10031 = test: In vitro antibacterial activity (MIC), K. pneumoniae 10031; conditions: Klebsiella pneumoniae, 10031, 18 h
N. catarrhalis 8193 = test: In vitro antibacterial activity (MIC), N. catarrhalis 8193; conditions: 18 h
P. vulgaris 6896 = test: In vitro antibacterial activity (MIC), P. vulgaris 6896; conditions: Proteus vulgaris, 6896, 18 h
S. aureus 53-180 = test: In vitro antibacterial activity (MIC), S. aureus 53-180; conditions: Staphylococcus aureus, 53180, 18 h

Row | Structure (SMILES) | MIC (E. coli 9637) | MIC (S. paratyphi 11737) | MTD [1] | ED100 ([2]; 1440 h, s.c., 60-day survivors) | minimal effective dose ([2]; this is the lowest dose tested) | Cure/Treat at Min. Curing Dose ([2]; s.c., 60-day survivors) | MIC (S. aureus Smith) | MIC (K. pneumoniae 10031) | MIC (N. catarrhalis 8193) | MIC (P. vulgaris 6896) | MIC (S. aureus 53-180) | minimal effective dose ([2]; 1440 h, s.c., 60-day survivors) | ΔMST (increase in mean survival time) ([2]; s.c., dose 10 mg. per kg.) | ΔMST (increase in mean survival time) ([2]; s.c., dose 40 mg. per kg.) | ΔMST (increase in mean survival time) ([2]; s.c., dose 5 mg. per kg.) | ΔMST (increase in mean survival time) ([2]; s.c., dose 1.25 mg. per kg.)
1 | Cc1ccc2ccccc2c1Cn1ccc2c3c(N)nc(N)nc3ccc21 [Example 49] | > 250 µg/mL | > 250 µg/mL | 80 mg/kg | 20 mg/kg | 20 mg/kg | 5/5 | 125 µg/mL (≈ 354 µM) | 15.6 µg/mL (≈ 44.1 µM) | 0.122 µg/mL (≈ 0.345 µM) | > 250 µg/mL | 125 µg/mL (≈ 354 µM) | – | – | – | – | –
2 | COc1ccccc1Cn1ccc2c3c(N)nc(N)nc3ccc21 [Example 32] | 1.95 µg/mL (≈ 6.11 µM) | 7.81 µg/mL (≈ 24.5 µM) | 160 mg/kg | 40 mg/kg | – | 3/5 | 0.976 µg/mL (≈ 3.06 µM) | 0.244 µg/mL (≈ 0.764 µM) | 0.061 µg/mL (≈ 0.191 µM) | 3.9 µg/mL (≈ 12.2 µM) | 0.976 µg/mL (≈ 3.06 µM) | 10 mg/kg | 10.5 | – | – | –
3 | Nc1nc(N)c2c(ccc3c2ccn3Cc2cccc(F)c2)n1 [Example 4] | 0.244 µg/mL (≈ 0.794 µM) | 0.488 µg/mL (≈ 1.59 µM) | 40 mg/kg | 40 mg/kg | – | 1/5 | 0.244 µg/mL (≈ 0.794 µM) | 0.061 µg/mL (≈ 0.198 µM) | < 0.0009 µg/mL | 0.488 µg/mL (≈ 1.59 µM) | 0.031 µg/mL (≈ 0.101 µM) | 10 mg/kg | 8.3 | – | – | –
4 | Nc1nc(N)c2c(ccc3c2ccn3Cc2cccnc2)n1 [Example 44] | 0.488 µg/mL (≈ 1.68 µM) | 0.488 µg/mL (≈ 1.68 µM) | 160 mg/kg | 160 mg/kg | – | 3/5 | 7.81 µg/mL (≈ 26.9 µM) | 0.122 µg/mL (≈ 0.42 µM) | < 0.0009 µg/mL | 7.81 µg/mL (≈ 26.9 µM) | 0.976 µg/mL (≈ 3.36 µM) | 80 mg/kg | – | 8.3 | – | –
5 | COc1cccc(Cn2ccc3c4c(N)nc(N)nc4ccc32)c1 [Example 33] | 0.488 µg/mL (≈ 1.53 µM) | 7.81 µg/mL (≈ 24.5 µM) | 40 mg/kg | 40 mg/kg | – | 1/5 | 3.9 µg/mL (≈ 12.2 µM) | 0.488 µg/mL (≈ 1.53 µM) | 0.976 µg/mL (≈ 3.06 µM) | 7.81 µg/mL (≈ 24.5 µM) | 0.976 µg/mL (≈ 3.06 µM) | 10 mg/kg | – | – | 7.6 | –
6 | Nc1nc(N)c2c(ccc3c2ccn3-c2ccc([N+](=O)[O-])cc2)n1 [Example 77] | 7.81 µg/mL (≈ 24.4 µM) | 62.5 µg/mL (≈ 195 µM) | 640 mg/kg | 640 mg/kg | – | 5/5 | 3.9 µg/mL (≈ 12.2 µM) | 0.976 µg/mL (≈ 3.05 µM) | 0.031 µg/mL (≈ 0.0968 µM) | 250 µg/mL (≈ 780 µM) | 3.9 µg/mL (≈ 12.2 µM) | 160 mg/kg | – | 28.3 | – | –
7 | CC(=O)c1ccc(Cn2ccc3c4c(N)nc(N)nc4ccc32)cc1 [Example 61, 7-[(4-Acetylphenyl)methyl]-7H-pyrrolo[3,2-f]-quinazoline-1,3-diamine] | 0.488 µg/mL (≈ 1.47 µM) | 0.976 µg/mL (≈ 2.95 µM) | 40 mg/kg | 20 mg/kg | – | 4/5 | 0.244 µg/mL (≈ 0.736 µM) | 0.061 µg/mL (≈ 0.184 µM) | 0.0076 µg/mL (≈ 0.0229 µM) | 1.95 µg/mL (≈ 5.88 µM) | 0.122 µg/mL (≈ 0.368 µM) | 2.5 mg/kg | – | – | 12.0 | –
8 | Nc1nc(N)c2c(ccc3c2ccn3Cc2cccc(Cl)c2)n1 [Example 7] | 7.81 µg/mL (≈ 24.1 µM) | 31.3 µg/mL (≈ 96.7 µM) | 160 mg/kg | 10 mg/kg | – | 2/5 | 1.95 µg/mL (≈ 6.02 µM) | 0.976 µg/mL (≈ 3.01 µM) | 0.244 µg/mL (≈ 0.754 µM) | 31.3 µg/mL (≈ 96.7 µM) | 0.976 µg/mL (≈ 3.01 µM) | 2.5 mg/kg | – | – | – | 7.7
